US20240398757A1 (COCRYSTAL PHARMA, INC., priority 2022, published 2024)

biological target: T1, SARS2 protease (Severe acute respiratory syndrome coronavirus 2, UniProt P0DTD1); experiment: SARS-CoV-2 protease inhibition assay (SARS2 FRET protease assay); format: biochemical; details: IC50 (μM), SARS2 protease 30 nM, peptide substrate 1.3 μM, 120 minutes at 37° C., compounds 20 μM to 0.075 nM
T1 construct: SARS2 protease was added to a final concentration of 30 nM

| SMILES | IC50 [µM] |
| --- | --- |
| CCCC[C@H](NC(=O)OC(c1cccc(F)c1)C(F)(F)c1cccc(F)c1)C(=O)N[C@@H](C[C@@H]1CCNC1=O)C(=O)C(=O)NC1CC1 (stereo partly shown) [Compound A80] | 0.14 |
| CCC(=O)OC([C@H](C[C@@H]1CCNC1=O)NC(=O)[C@H](CC1CCCCC1)NC(=O)OC(c1ccccc1)C(F)(F)c1cccc(Cl)c1)S(=O)(=O)O (stereo partly shown) [Compound A101] | 0.178 |
| CCCC[C@H](NC(=O)OC(c1ccccc1)C(F)(F)c1cccc(Cl)c1)C(=O)N[C@@H](C[C@@H]1CCNC1=O)C(=O)c1nc2ccccc2o1 (stereo partly drawn) [Compound A269, 2-(3-chlorophenyl)-2,2-difluoro-1-phenylethyl ((S)-1-(((S)-1-(benzo[d]oxazol-2-yl)-1-oxo-3-((S)-2-oxopyrrolidin-3-yl)propan-2-yl)amino)-1-oxohexan-2-yl)carbamate] | 0.418 |
| CCC[C@H](NC(=O)OC(c1ccccc1)C(F)(F)c1cccc(Cl)c1)C(=O)N[C@@H](C[C@@H]1CCNC1=O)C(=O)C(=O)NCC (stereo partly shown) [Compound A145] | 0.15 |
| O=C[C@H](C[C@@H]1CCNC1=O)NC(=O)[C@H](CC1CCCCC1)NC(=O)OC(c1ccccc1)C(F)(F)c1cccc(Cl)c1 (stereo partly shown) [Compound A20] | 0.0003 |
| CCC[C@H](NC(=O)OC(c1ccccc1)C(F)(F)c1cccc(Cl)c1)C(=O)N[C@H](C=O)C[C@@H]1CCNC1=O (stereo partly shown) [Compound A98] | 0.0019 |
| CC(C)C[C@H](NC(=O)O[C@H](c1ccccc1)C(F)(F)c1cccc(F)c1)C(=O)N[C@H](C=O)C[C@@H]1CCNC1=O [Compound A152] | 0.0078 |
| CCCC[C@H](NC(=O)OC(c1ccccc1)C(C)(C)c1cccc(Cl)c1)C(=O)N[C@@H](C[C@@H]1CCNC1=O)C(=O)C(=O)NC1CC1 (stereo partly shown) [Compound A189] | 1.37 |
| CCCC[C@H](NC(=O)OC(c1ccccc1)C(F)(F)c1cccc(Cl)c1)C(=O)N[C@@H](C[C@@H]1CCNC1=O)C(=O)C(=O)NC1CC1 (stereo partly shown) [Compound A51] | 0.13 |
| O=C(N[C@@H](CC1CCCCC1)C(=O)N[C@@H](C[C@@H]1CCNC1=O)C(=O)C(=O)NC1CC1)O[C@@H](c1ccccc1)C(F)(F)c1cccc(F)c1 [Compound A236] | 0.817 |
| CC(C)C[C@H](NC(=O)OC(c1ccccc1)C(F)(F)c1cccc(-c2ccccc2)c1)C(=O)N[C@@H](C[C@@H]1CCNC1=O)C(=O)C(=O)NC1CC1 (stereo partly shown) [Compound A191] | 0.006 |
| CCCC[C@H](NC(=O)O[C@@H](c1ccc(F)cc1)C(F)(F)c1cccc(Cl)c1)C(=O)N[C@@H](C[C@@H]1CCNC1=O)C(=O)C(=O)NC1CC1 [Compound A199] | 0.494 |
| CC(C)C[C@H](NC(=O)OC(C(C)C)C(F)(F)c1cccc(C2CC2)c1)C(=O)N[C@@H](C[C@@H]1CCNC1=O)C(=O)C(=O)NC1CC1 (stereo partly shown) [Compound A181] | 0.52 |
| CC(C)C[C@H](NC(=O)OC(c1ccccc1)C(C)(C)c1cccc(Cl)c1)C(=O)N[C@@H](C[C@@H]1CCCNC1=O)C(=O)C(=O)NC1CC1 (stereo partly shown) [Compound A57] | 1.13 |
| CCCC[C@H](NC(=O)OC(c1ccccc1)C1(c2cccc(F)c2)CC1)C(=O)N[C@H](C=O)C[C@@H]1CCNC1=O (stereo partly shown) [Compound A40] | 0.003 |
| CC(C)C[C@H](NC(=O)OC(c1ccccc1)C(F)(F)c1cccc(C(C)C)c1)C(=O)N[C@@H](C[C@@H]1CCNC1=O)C(=O)C(=O)NC1CC1 (stereo partly shown) [Compound A182] | 0.001 |
| CCNC(=O)C(=O)[C@H](C[C@H]1CCNC1=O)NC(=O)[C@H](CC(C)C)NC(=O)OC(c1ccccc1)C(F)(F)c1cccc(Cl)c1 (stereo partly shown) [Compound A188] | 0.392 |

| SMILES | IC50 [µM] |
| --- | --- |
| CC(C)C[C@H](NC(=O)OC(c1ccccc1)C(C)(C)c1cccc(C(F)(F)F)c1)C(=O)N[C@H](C=O)C[C@@H]1CCNC1=O (stereo partly shown) [Compound A171] | 0.0001 |
| O=C[C@H](C[C@@H]1CCCNC1=O)NC(=O)[C@H](CC1CCCCC1)NC(=O)O[C@H](c1ccccc1)C(F)(F)c1cccc(Cl)c1 [Compound A155] | 0.611 |
| CCCC[C@H](NC(=O)OC(c1ccccc1)C(F)(F)c1cccc(Cl)c1)C(=O)N[C@@H](C[C@@H]1CCNC1=O)C(=O)C(N)=O (stereo partly drawn) [Compound A224, 2-(3-chlorophenyl)-2,2-difluoro-1-phenylethyl ((S)-1-(((S)-4-amino-3,4-dioxo-1-((S)-2-oxopyrolidin-3-yl)butan-2-yl)amino)-1-oxohexan-2-yl) carbamate] | 0.0001 |
| O=C(N[C@@H](CC1CCCCC1)C(=O)N[C@@H](C[C@@H]1CCNC1=O)C(O)S(=O)(=O)O)OC(c1ccccc1)C(F)(F)c1cccc(Cl)c1 (stereo partly shown) [Compound A75] | 0.009 |
| CC(C)C[C@H](NC(=O)OC(c1ccccc1)C(F)(F)c1cccc(C2CCC2)c1)C(=O)N[C@H](C=O)C[C@@H]1CCNC1=O (stereo partly shown) [Compound A314] | 0.001 |
| CCNC(=O)C(=O)[C@H](C[C@H]1CCNC1=O)NC(=O)[C@H](CC1CCCCC1)NC(=O)OC(c1ccccc1)C(F)(F)c1cccc(Cl)c1 (stereo partly shown) [Compound A207] | 0.764 |
| CCCC[C@H](NC(=O)O[C@@H](c1ccncc1)C(F)(F)c1cccc(Cl)c1)C(=O)N[C@@H](C[C@@H]1CCNC1=O)C(=O)C(=O)NC1CC1 [Compound A303] | 0.055 |
| CCCC[C@H](NC(=O)OC(c1cccc(F)c1)C1(c2cccc(F)c2)CC1)C(=O)N[C@H](C=O)C[C@@H]1CCNC1=O (stereo partly shown) [Compound A97] | 0.0021 |
| CC(C)C[C@H](NC(=O)OC(c1ccc(Cl)cc1)C1(c2cccc(Cl)c2)CCCCC1)C(=O)N[C@@H](C[C@@H]1CCNC1=O)C(=O)C(=O)NC1CC1 (stereo partly shown) [Compound A36] | 1.15 |
| CCNC(=O)C(=O)[C@H](C[C@@H]1CCNC1=O)NC(=O)[C@H](CC1CCC1)NC(=O)OC(c1ccccc1)C(F)(F)c1cccc(Cl)c1 (stereo partly shown) [Compound A132] | 0.066 |
| CC(C)C[C@H](NC(=O)O[C@@H](C(C)C)C(F)(F)c1cccc(-c2ccccc2)c1)C(=O)N[C@@H](C[C@@H]1CCNC1=O)C(=O)C(=O)NC1CC1 [Compound A226, 1-([1,1′-biphenyl]-3-yl)-1,1-difluoro-3-methylbutan-2-yl ((S)-1-(((S)-4-(cyclopropylamino)-3,4-dioxo-1-((S)-2-oxopyrrolidin-3-yl)butan-2-yl)amino)-4-methyl-1-oxopentan-2-yl)carbamate] | 0.062 |
| O=C(N[C@@H](CC1CCCC1)C(=O)N[C@@H](C[C@@H]1CCNC1=O)C(=O)C(=O)NC1CC1)OC(c1ccccc1)C(F)(F)c1cccc(Cl)c1 (stereo partly shown) [Compound A103] | 0.156 |
| CCC(=O)OC([C@H](C[C@@H]1CCNC1=O)NC(=O)[C@H](CC1CCCCC1)NC(=O)O[C@H](c1ccccc1)C(F)(F)c1cccc(Cl)c1)S(=O)(=O)O (stereo partly shown) [Compound A212] | 4.15 |
| CCC(C)C[C@H](NC(=O)OC(c1ccccc1)C(F)(F)c1cccc(Cl)c1)C(=O)N[C@H](C=O)C[C@@H]1CCNC1=O (stereo partly shown) [Compound A234] | 0.001 |
| CCCC[C@H](NC(=O)OC(c1ccccc1)C(F)(F)c1cccc(Cl)c1)C(=O)N[C@@H](C[C@@H]1CCNC1=O)C(=O)C(=O)NCCNCC (stereo partly shown) [Compound A294] | 0.486 |
| CC(C)C[C@H](NC(=O)OC(c1ccccc1)C(F)(F)c1cccc(C2CC2)c1)C(=O)N[C@@H](C[C@@H]1CCNC1=O)C(=O)C(=O)NC1CC1 (stereo partly shown) [Compound A170] | 0.0002 |
| O=C[C@H](C[C@@H]1CCNC1=O)NC(=O)[C@H](CCC(F)F)NC(=O)OC(c1ccccc1)C(F)(F)c1cccc(Cl)c1 (stereo partly drawn) [Compound A163, 2-(3-chlorophenyl)-2,2-difluoro-1-phenylethyl ((S)-5,5-difluoro-1-oxo-1-(((S)-1-oxo-3-((S)-2-oxopyrrolidin-3-yl)propan-2-yl)amino)pentan-2-yl)carbamate] | 0.017 |
